In series [1] the test system is hepatic disorder induced by carbon tetrachloride. In words: Effect on hepatic disorder induced by carbon tetrachloride in rats (Example 5; serum GOT, GPT, bilirubin). The format is in vivo, SLC-Wistar male rats. Particulars: CCl4 0.5 ml/kg i.p., blood 24 hours after CCl4; for Bilirubin in serum: normal 0.12 ± 0.02, no combination compound 0.26 ± 0.02; for GPT in serum: normal 32 ± 3, no combination compound 10606 ± 1952; for GOT in serum: normal 73 ± 5, no combination compound 18228 ± 2032. As to the method: Five rats were used in each test group. The sample compound (i.e., the compound prepared in Example 1) was suspended at a concentration of 40 mg/ml in a 0.1% aqueous solution of Tween-80. Alpha-tocopherol was dissolved at a concentration of 40 mg/ml in an olive oil. This solution was administered orally at a dose of 200 mg/kg each for 2 days. Glutathione was dissolved at a concentration of 100 mg/ml in a 0.1% aqueous solution of Tween-80. This solution was orally administered at a dose of 500 mg/kg for 2 days. Carbon tetrachloride was intraperitoneally administered as a 10% olive oil solution at a dose of 5 ml/kg (0.5 ml/kg in terms of CCl4) one hour after the final administration of the sample compound. Blood samples were collected from the carotid artery under pentobarbital anesthesia, 24 hours after the administration of carbon tetrachloride. […] The determination of GOT and GPT in serum was carried out according to a UV method and the determination of bilirubin was carried out according to a diazo method.

The test system of series [2] is liver disorder induced by D-galactosamine. Kind of series: Effect on liver disorder induced by D-galactosamine in rats (serum GOT, GPT, bilirubin). The format is in vivo, Wistar-Imamichi male rats. Particulars: D-galactosamine 400 mg/kg i.p., 200 mg/kg orally for 2 days, blood 24 hours after D-galactosamine; for Bilirubin in serum: normal 0.12 ± 0.02, no combination compound 0.43 ± 0.06; for GPT in serum: normal 15 ± 1, no combination compound 2195 ± 460; for GOT in serum: normal 97 ± 3, no combination compound 6170 ± 1507. The procedure:
Effect of 3,5-diethoxycarbonyl-4-[2'-(5',6'-dihydro-p-dioxinyl)]-2,6-dimethyl-1,4-dihydropyridine (compound of Example 1) on liver disorder induced by D-galactosamine.
The effect of the sample compound to be tested on hepatic disorder was evaluated by determining the levels of GOT, GPT and bilirubin, which are known as an indicator of hepatic disorder, in serum, after administering D-galactosamine hydrochloride and the sample compound to Wistar-Imamichi male rats (8 week age and body weight of 260 to 280 g) as follows.
Five rats were used in each test group. The sample compound (i.e., the compound prepared in Example 1) was suspended at a concentration of 40 mg/ml in a 0.1% aqueous solution of Tween-80 (Trademark of surfactant available from Atlas Chemical Corp.). Alpha-tocopherol was dissolved at a concentration of 40 mg/ml in olive oil. This solution was administered orally at a dose of 200 mg/kg each for 2 days (25 and 1 hours before the administration of D-galactosamine). D-galactosamine was dissolved at a concentration of 100 mg/ml in a Physiological saline and this solution was administered intraperitoneally at a single dose of 400 mg/kg one hour after the final administration of the sample compound.
Blood samples were collected from the carotid artery under pentobarbital anesthesia, 24 hours after the administration of D-galactosamine. The rats were fasted for 18 to 20 hours before collecting of blood sample.
(§1) The determination of GOT and GPT in serum was carried out according to a UV method and the determination of bilirubin was carried out according to a diazo method.

A further series is described as follows: in vivo. As to conditions: rat, oral, rats 5 week age, observed for 3 days.
For series [3], the system named is hepatic disorder induced by carbon tetrachloride. Kind of series: Effect on hepatic disorder induced by carbon tetrachloride in rats (Examples 6 and 7; serum GOT, GPT, bilirubin). As to conditions: CCl4 0.5 ml/kg i.p., 200 mg/kg orally for 2 days, blood 24 hours after CCl4; for Bilirubin in serum: normal 0.10 ± 0.00, no combination compound 0.24 ± 0.02; for GPT in serum: normal 46 ± 6, no combination compound 10266 ± 818; for GOT in serum: normal 97 ± 10, no combination compound 16650 ± 1636. The format is in vivo, SLC-Wistar male rats. The procedure: The effects of the sample compounds on hepatic disorders were evaluated by determining the levels of GOT, GPT, and bilirubin […] in serum, after administering carbon tetrachloride and the sample compound to SLC-Wistar male rats (10 week age and body weight of 240 to 270 g) as follows.
Five rats were used in each test group. The sample compounds (i.e., the compounds prepared in Examples 2 and 3) were suspended at a concentration of 40 mg/ml in a 0.1% aqueous solution of Tween-80. Alpha-tocopherol was dissolved at a concentration of 40 mg/ml in olive oil. This solution was administered orally at a dose of 200 mg/kg each for 2 days. Glutathione was dissolved at a concentration of 100 mg/ml in a 0.1% aqueous solution of Tween-80. This solution was orally administered at a dose of 500 mg/kg for 2 days. Carbon tetrachloride was intraperitoneally administered as a 10% olive oil solution at a dose of 5 ml/kg (0.5 ml/kg in terms of CCl4) one hour after the final administration of each sample compound.
Blood sampels were collected from the carotid artery under pentobarbital anesthesia, 24 hours after the administration of carbon tetrachloride. The rats were fasted for 18 to 20 hours before collecting of a blood sample.
as §1

Where [4] appears, read: glutathione 500 mg/kg orally for 2 days.

As for `N[C@@H](CCC(=O)N[C@@H](CS)C(=O)NCC(=O)O)C(=O)O` [glutathione], in series [1] (setting [4]), the Bilirubin in serum worked out at 0.22 ± 0.02 mg/dL, the GPT in serum came out at 7722 ± 1170 KU and the GOT in serum amounted to 11272 ± 1904 KU.
On to `CCOC(=O)C1=C(C)NC(C)=C(C(=O)OCC)C1C1=COCCO1` [Example 1, 3,5-diethoxycarbonyl-4-[2'-(5',6'-dihydro-p-dioxinyl)]-2,6-dimethyl-1,4-dihydropyridine], for which, in series [2], the Bilirubin in serum was determined as 0.30 ± 0.06 mg/dL, the GPT in serum amounted to 862 ± 373 KU and the GOT in serum was 2194 ± 777 KU. In series [1] (200 mg/kg orally for 2 days), the Bilirubin in serum came out at 0.14 ± 0.02 mg/dL, the GPT in serum turned out to be 1396 ± 290 KU and the GOT in serum was 1800 ± 321 KU. In addition, the LD50 at 72 h in “in vivo” is approximately 2000 mg/kg.
With `Cc1c(C)c2c(c(C)c1O)CCC(C)(CCCC(C)CCCC(C)CCCC(C)C)O2` (stereo not drawn) [alpha-tocopherol, reference compound], the Bilirubin in serum is 0.26 ± 0.02 mg/dL in series [2], 0.18 ± 0.02 mg/dL in series [1] (200 mg/kg orally for 2 days) and 0.26 ± 0.04 mg/dL in series [3]. Also, the GPT in serum came to 1043 ± 189 KU in series [2], 5764 ± 1564 KU in series [1] (200 mg/kg orally for 2 days) and 9106 ± 591 KU in series [3]. Also, the values for the GOT in serum in series [2], in series [1] (200 mg/kg orally for 2 days) and in series [3] were 3065 ± 440 KU, 5662 ± 793 KU and 14558 ± 1049 KU, respectively.
With `CCCOC(=O)C1=C(C)NC(C)=C(C(=O)OCCC)C1C1=COCCO1` [Example 2, 3,5-di-n-propyloxycarbonyl-4-[2'-(5',6'-dihydro-p-dioxynyl)]-2,6-dimethyl-1,4-dihydropyridine], in series [3], the Bilirubin in serum was found to be 0.13 ± 0.03 mg/dL, the GPT in serum was determined as 1443 ± 228 KU and the GOT in serum amounted to 2456 ± 734 KU. The LD50 at 72 h in “in vivo” is not below 2000 mg/kg.
As to `COC(=O)C1=C(C)NC(C)=C(C(=O)OC)C1C1=COCCO1` [Example 3, 3,5-dimethoxycarbonyl-4-2'-(5',6'-dihydro-p-dioxinyl)-2,6-dimethyl-1,4-dihydropyridine], in series [3], the Bilirubin in serum amounted to 0.14 ± 0.02 mg/dL, the GPT in serum is reported as 680 ± 107 KU and the GOT in serum turned out to be 901 ± 127 KU.

Source of the values: patent US4495356A, “1,4-Dihydropyridine compound” (Nikken Chemicals Co., Ltd., priority 1982, dated 1985).
